# How the values were obtained:
# Format in all cases: cell-based
# DU-AR = test: Growth/viability assay, IC50 at 72 h; conditions: Homo sapiens, Fig. 2g
# Excerpt: (§1) Four commercial (LnCaP, 22rv1, DU145 and PC3) and twelve non-commercial (LAPC-4 [44], CWR22, PCb2 [45], PC3Lymphnode, PC3M, PC3M-pro4 [46] and PC3M-Ln4 [47], LnCaP-104S [47], LnCaP104R1 [47], LnCaP-C81 [47], C4-2B [48], VCAP [49] and DuCaP [[49]) cell lines were selected for the in vitro experimental studies for their biological characteristics: LAPC-4 (Androgen receptor [AR] positive, androgen dependent with low Akt/mTOR activities, p53 wt); LnCaP (AR positive, androgen dependent with high Akt/mTOR activities, p53 wt); LnCaP-C81 and LnCaP-C4-2B (AR positive, androgen independent with high Akt/mTOR activities, p53 wt); 22rv1 (AR positive, androgen independent with low Akt/mTOR activities, p53 wt); PC3 (AR negative, with high Akt/mTOR activities and no p53 function (p53 del) and DU145 (AR negative, with low Akt/mTOR activities and mutant p53). PC3 and DU145 have been also transfected with AR to obtain PC3AR [50] and DU-AR [51]. Benign prostatic hyperplasia line (BPH1), and Prostatic epithelial lines (EPN and RWPE-1) were used as non-neoplastic controls. Cells were routinely cultured in appropriate medium supplemented with 10 % fetal bovine serum (FBS), 1 % pen-strep and 1 % L-glutamine (Invitrogen Corporation, Carlsbad, CA). To minimize the risk to work with misidentified and/or contaminated cell lines, DNA profiling was periodically carried out in-house to authenticate cell cultures. DNA was isolated from cell lines using a standard DNA isolation kit. STR profiling was performed by using GenePrint® 10 System (Promega Corporation, Madison, WI). An eight-capillary 3500 Genetic Analyzer (Applied Biosystems Life Technologies Europe BV, Monza, Italy) was used to separate and identify alleles using standard procedures. GenePrint® 10 System allows co-amplification and detection of eight human loci required by the guidelines ASN-0002. For non-commercial cell lines, the authentication process was carried out by comparing STR-fingerprints with those published by Adri van Bokhoven and co-workers. In addition, cell lines were stocked at very low passages and used at <15-20 subcultures.
# (§2) Cells were seeded at a density of 2 x 10^4 cells/mL in 24-well plates. Cells were left to attach and grow in 5 % FCS DMEM for 24 h. After this time, cells were maintained in the appropriate culture conditions. Morphological controls were performed every day with an inverted phase-contrast photomicroscope (Nikon Diaphot, Tokyo, Japan) before cell trypsinization and counting. Cells were trypsinized and resuspended in 1.0 ml of saline, then counted using a NucleoCounter™ NC-100 (automated cell counter systems, Chemotec, Gydevang, Denmark). The effect on cell proliferation was measured by taking the mean cell number with respect to controls over time for the different treatment groups.
# (§3) Viable cells were counted by using the NucleoCounter™ NC-100 (automated cell counter systems, Chemotec, Cydevang, DK). Apoptosis was evaluated by using Tali® Apoptosis Kit - Annexin V Alexa Fluor® 488 & Propidium Iodide-based, (Life Technologies Italia, Monza, Italy). Stained cells were then measured on a Tali® Image-Based Cytometer. Apoptosis was further confirmed by FACS analysis following the instructions of the manufacturer.
# (§4) Six SINE analogs KPT-127, KPT-185, KPT-205, KPT-227, KPT251 and KPT-330 sharing a trifluoromethyl phenyl triazole scaffold, were investigated for their growth inhibitory and apoptotic potential in our PCa cell panel. Therefore, the effects of these XPO1 inhibitors were evaluated on the growth of PCa cell lines performing dose- and time-dependent studies. To examine the dose-dependent effects of these compounds, we treated cells with varying doses of the compounds (0, 1, 10, 50, 100, 500 and 1000 nM) and assessed viability at 72 hours after treatment. The IC50 for each compound was then calculated. […]
# 22rv1 = test: Growth/viability assay, IC50 at 72 h; conditions: Homo sapiens
# Excerpt: as §1, §2, §3, §4
# C4-2B = test: Growth/viability assay, IC50 at 72 h; conditions: Homo sapiens, Fig. 2g
# Excerpt: as §1, §2, §3, §4
# VCaP = test: Growth/viability assay, IC50 at 72 h; conditions: Homo sapiens, Fig. 2g
# Excerpt: as §1, §2, §3, §4
# CWR22 = test: Growth/viability assay, IC50 at 72 h; conditions: Homo sapiens; CWR22, Fig. 2g
# Excerpt: as §1, §2, §3, §4
# LAPC-4 = test: Growth/viability assay, IC50 at 72 h; conditions: Homo sapiens
# Excerpt: as §1, §2, §3, §4
# LnCaP104R1 = test: Growth/viability assay, IC50 at 72 h; conditions: Homo sapiens; 104R1, Fig. 2g
# Excerpt: as §1, §2, §3, §4
# LnCaP-104S = test: Growth/viability assay, IC50 at 72 h; conditions: Homo sapiens, Fig. 2g
# Excerpt: as §1, §2, §3, §4
# DU145 = test: Growth/viability assay, IC50 at 72 h; conditions: Homo sapiens, DU-145; DU145, Fig. 2g
# Excerpt: as §1, §2, §3, §4
# PC3M-pro4 = test: Growth/viability assay, IC50 at 72 h; conditions: Homo sapiens; PC3M-pro4, Fig. 2g
# Excerpt: as §1, §2, §3, §4
# RWPE-1 = test: Growth/viability assay, IC50 at 72 h; conditions: Homo sapiens; RWPE-1, Fig. 2g
# Excerpt: as §1, §2, §3, §4
# LnCaP-C81 = test: Growth/viability assay, IC50 at 72 h; conditions: Homo sapiens; C-81, Fig. 2g
# Excerpt: as §1, §2, §3, §4
# PC3 = test: Growth/viability assay, IC50 at 72 h; conditions: Homo sapiens, PC-3
# Excerpt: as §1, §2, §3, §4
# PCb2 = test: Growth/viability assay, IC50 at 72 h; conditions: Homo sapiens; PCb2, Fig. 2g
# Excerpt: as §1, §2, §3, §4
# PC3AR = test: Growth/viability assay, IC50 at 72 h; conditions: Homo sapiens, PC3/AR, Fig. 2g
# Excerpt: as §1, §2, §3, §4
# LnCaP = test: Growth/viability assay, IC50 at 72 h; conditions: Homo sapiens
# Excerpt: as §1, §2, §3, §4
# DuCaP = test: Growth/viability assay, IC50 at 72 h; conditions: Homo sapiens, Fig. 2g
# Excerpt: as §1, §2, §3, §4
# PC3M-Ln4 = test: Growth/viability assay, IC50 at 72 h; conditions: Homo sapiens; PC3M-Ln4, Fig. 2g
# Excerpt: as §1, §2, §3, §4
# BPH-1 = test: Growth/viability assay, IC50 at 72 h; conditions: Homo sapiens
# Excerpt: as §1, §2, §3, §4
# EPN = test: Growth/viability assay, IC50 at 72 h; conditions: Homo sapiens, Fig. 2g
# Excerpt: as §1, §2, §3, §4
# PCa cell lines = test: Growth inhibition across the PCa cell panel; conditions: Homo sapiens; 72 hours, range across the cell panel; read-out: IC50 values, range over PCa cell lines
# Excerpt: as §1, with “STR profiling was performed by using GenePrint® 10 System (Promega Corporation, Madison, WI). An eight-capillary 3500 Genetic Analyzer (Applied Biosystems Life Technologies Europe BV, Monza, Italy) was used to separate and identify alleles using standard procedures. GenePrint® 10 System allows co-amplification and detection of eight human loci required by the guidelines ASN-0002. For non-commercial cell lines, the authentication process was carried out by comparing STR-fingerprints with those published by Adri van Bokhoven and co-workers. In addition, cell lines were stocked at very low passages and used at <15-20 subcultures.” left out
# Cells were seeded at a density of 2 x 10^4 cells/mL in 24-well plates. […] Cells were trypsinized and resuspended in 1.0 ml of saline, then counted using a NucleoCounter™ NC-100 (automated cell counter systems, Chemotec, Gydevang, Denmark). The effect on cell proliferation was measured by taking the mean cell number with respect to controls over time for the different treatment groups.
# as §3, with “Apoptosis was further confirmed by FACS analysis following the instructions of the manufacturer.” left out
# as §4
Structure (SMILES),IC50 (DU-AR) [nM],"IC50 (22rv1; 22rv1, 72 hours, Fig. 2a-f) [nM]","IC50 (22rv1; 22rv1, Fig. 2g) [nM]",IC50 (C4-2B) [nM],IC50 (VCaP) [nM],IC50 (CWR22) [nM],"IC50 (LAPC-4; LAPC4, LAPC-4, Fig. 2g) [nM]","IC50 (LAPC-4; LAPC4, 72 hours, Fig. 2a-f) [nM]",IC50 (LnCaP104R1) [nM],IC50 (LnCaP-104S) [nM],IC50 (DU145) [nM],IC50 (PC3M-pro4) [nM],IC50 (RWPE-1) [nM],IC50 (LnCaP-C81) [nM],"IC50 (PC3; PC3, 72 hours, Fig. 2a-f) [nM]","IC50 (PC3; PC3, Fig. 2g) [nM]",IC50 (PCb2) [nM],IC50 (PC3AR) [nM],"IC50 (LnCaP; 72 hours, Fig. 2a-f) [nM]",IC50 (LnCaP; Fig. 2g) [nM],further results
CC(C)OC(=O)/C=C\n1cnc(-c2cccc(Cl)c2)n1 [KPT-127],47,100 ± 10,100,25,100,160,201,201 ± 15,30,50,55,90,1000,20,59 ± 3,59,44,62,43 ± 4,43,"IC50 (DuCaP): 100 nM; IC50 (PC3M-Ln4): 55 nM; IC50 (BPH-1; BPH-1, BPH1, Fig. 2g): > 1000 nM; IC50 (BPH-1; BPH-1, 72 hours, Fig. 2a-f): > 1000 nM; IC50 (EPN): 800 nM; IC50 (PCa cell lines): 43 to 201 nM"
COc1cc(-c2ncn(/C=C\C(=O)OC(C)C)n2)cc(C(F)(F)F)c1 [KPT-185],143,189 ± 84,160,179,400,230,321,321 ± 105,260,240,177,330,1000,200,207 ± 44,207,215,233,268 ± 34,268,"IC50 (DuCaP): 270 nM; IC50 (PC3M-Ln4): 200 nM; IC50 (BPH-1; BPH-1, BPH1, Fig. 2g): > 1000 nM; IC50 (BPH-1; BPH-1, 72 hours, Fig. 2a-f): > 1000 nM; IC50 (EPN): 1000 nM; IC50 (PCa cell lines): 180 to 700 nM"
CC(C)OC(=O)/C=C\n1cnc(-c2cc(OC(C)C)cc(C(F)(F)F)c2)n1 [KPT-207],65,78 ± 19,78,144,130,133,115,101 ± 1,100,80,90,125,820,160,74 ± 5,74,67,80,113 ± 12,301,"IC50 (DuCaP): 120 nM; IC50 (PC3M-Ln4): 60 nM; IC50 (BPH-1; BPH-1, BPH1, Fig. 2g): > 1000 nM; IC50 (BPH-1; BPH-1, 72 hours, Fig. 2a-f): > 1000 nM; IC50 (EPN): 750 nM"
COc1cc(-c2ncn(/C=C\c3nnco3)n2)cc(C(F)(F)F)c1 [KPT-225],112,204 ± 44,204,170,240,180,223,223 ± 31,160,120,135,180,1000,180,122 ± 5,122,160,144,171 ± 30,171,"IC50 (DuCaP): 180 nM; IC50 (PC3M-Ln4): 80 nM; IC50 (BPH-1; BPH-1, BPH1, Fig. 2g): > 1000 nM; IC50 (BPH-1; BPH-1, 72 hours, Fig. 2a-f): > 1000 nM; IC50 (EPN): 1000 nM"

# Source: article PMC4666032, “KPT-330, a potent and selective exportin-1 (XPO-1) inhibitor, shows antitumor effects modulating the expression of cyclin D1 and survivin in prostate cancer models” (BMC Cancer, 2015)
